Read-outs that look alike come from different tables or passages of the source.
Target: SARS-CoV-2 3CL^pro (Severe acute respiratory syndrome coronavirus 2, UniProt P0DTD1)
Test: biochemical
Type: biochemical
Details: for inhibition at 20 µM: 20 μM compound; for inhibitory activity against SARS-CoV-2 3CL^pro (in words, SAR discussion): compared with 7a (7i–7k with 7h)
[1] = recombinant 3CLpro 40 nM, mean ± SD, n = 3
[2] = recombinant 3CLpro 40 nM, substrate 40 μM, mean ± SD, n = 3, read-out: SARS-CoV-2 3CL^pro IC50

SMILES: COc1cc(OC)cc(C(=O)Nc2nc3c(s2)Cc2cc(Cl)ccc2-3)c1 [compound 7e, N-(6-chloro-8H-indeno[1,2-d]thiazol-2-yl)-3,5-dimethoxybenzamide]
- inhibition at 20 µM [1]: 27.2 ± 5.3%
- inhibitory activity against SARS-CoV-2 3CL^pro (in words, SAR discussion): completely abolished
- IC50 [2]: > 20 µM

SMILES: COc1cc(OC)cc(C(=O)Nc2nc3c(s2)Cc2cc(C)ccc2-3)c1 [compound 7d, 3,5-dimethoxy-N-(6-methyl-8H-indeno[1,2-d]thiazol-2-yl)benzamide]
- inhibition at 20 µM [1]: 21.7 ± 2.2%
- inhibitory activity against SARS-CoV-2 3CL^pro (in words, SAR discussion): completely abolished
- IC50 [2]: > 20 µM

SMILES: COc1ccc2c(c1)Cc1sc(NC(=O)c3ccc(Cl)cc3)nc1-2 [compound 7k, 4-chloro-N-(6-methoxy-8H-indeno[1,2-d]thiazol-2-yl)benzamide]
- inhibition at 20 µM [1]: 1.5 ± 4.5%
- IC50 [2]: > 20 µM

SMILES: COc1ccc2c(c1)Cc1sc(NC(=O)c3cccs3)nc1-2 [compound 7j, N-(6-methoxy-8H-indeno[1,2-d]thiazol-2-yl)thiophene-2-carboxamide]
- IC50: > 20 µM
- inhibition at 20 µM [1]: 31.9 ± 18.2%

SMILES: COc1cc(OC)cc(C(=O)Nc2nc(-c3ccc(OC)cc3C)cs2)c1 [compound 10a]
- inhibition at 20 µM [1]: 1.9 ± 2.1%
- inhibitory activity against SARS-CoV-2 3CL^pro (in words, SAR discussion): lost inhibitory activities
- IC50 [2]: > 20 µM

SMILES: COc1cc(OC)cc(C(=O)Nc2nc3c(s2)Cc2cc(OCC(C)C)ccc2-3)c1 [compound 7c, N-(6-isobutoxy-8H-indeno[1,2-d]thiazol-2-yl)-3,5-dimethoxybenzamide]
- inhibition at 20 µM [1]: -3.1 ± 1.7%
- inhibitory activity against SARS-CoV-2 3CL^pro (in words, SAR discussion): completely abolished
- IC50 [2]: > 20 µM

SMILES: COc1ccc2c(c1)Cc1sc(NC(=O)c3cc(OC(C)=O)cc(OC(C)=O)c3)nc1-2 [compound 7g, 5-((6-methoxy-8H-indeno[1,2-d]thiazol-2-yl)carbamoyl)-1,3-phenylene diacetate]
- inhibition at 20 µM [1]: 32.6 ± 6.8%
- inhibitory activity against SARS-CoV-2 3CL^pro (in words, SAR discussion): dropped significantly
- IC50 [2]: > 20 µM

SMILES: COc1cc(OC)cc(C(=O)Nc2nc(-c3ccc(OC)c(C)c3)cs2)c1 [compound 10b, 3,5-dimethoxy-N-(4-(4-methoxy-3-methylphenyl)thiazol-2-yl)benzamide]
- inhibition at 20 µM [1]: 1.8 ± 3.5%
- inhibitory activity against SARS-CoV-2 3CL^pro (in words, SAR discussion): lost inhibitory activities
- IC50 [2]: > 20 µM

SMILES: COc1cccc(C(=O)Nc2nc3c(s2)Cc2cc(OC)ccc2-3)c1 [compound 7h, 3-methoxy-N-(6-methoxy-8H-indeno[1,2-d]thiazol-2-yl)benzamide]
- inhibition at 20 µM [1]: 72.5 ± 6.1%
- inhibitory activity against SARS-CoV-2 3CL^pro (in words, SAR discussion): almost maintained its inhibitory activities
- IC50 [2]: 2.86 ± 0.11 µM

SMILES: COc1cc(OC)cc(C(=O)Nc2nc3c(s2)Cc2cc(OC)ccc2-3)c1 [compound 7a]
- inhibition at 20 µM [1]: 89.5 ± 2%
- IC50 [2]: 1.28 ± 0.17 µM

SMILES: COc1cc(OC)cc(C(=O)Nc2nc3c(s2)Cc2ccc(OC)cc2-3)c1 [compound 4, 3,5-dimethoxy-N-(5-methoxy-8H-indeno[1,2-d]thiazol-2-yl)benzamide]
- IC50 [2]: 6.42 ± 0.9 µM

SMILES: COc1ccc2c(c1)Cc1sc(NC(=O)c3cccc(F)c3)nc1-2 [compound 7i, 3-fluoro-N-(6-methoxy-8H-indeno[1,2-d]thiazol-2-yl)benzamide]
- inhibition at 20 µM [1]: 20.3 ± 4.7%
- IC50 [2]: > 20 µM

SMILES: COc1ccc2c(c1)Cc1sc(NC(=O)c3cc(OC)c(OC)c(OC)c3)nc1-2 [compound 7f, 3,4,5-trimethoxy-N-(6-methoxy-8H-indeno[1,2-d]thiazol-2-yl)benzamide]
- inhibition at 20 µM [1]: 5 ± 5.6%
- inhibitory activity against SARS-CoV-2 3CL^pro (in words, SAR discussion): dropped significantly
- IC50 [2]: > 20 µM

SMILES: CCCCOc1ccc2c(c1)Cc1sc(NC(=O)c3cc(OC)cc(OC)c3)nc1-2 [compound 7b, N-(6-butoxy-8H-indeno[1,2-d]thiazol-2-yl)-3,5-dimethoxybenzamide]
- inhibition at 20 µM [1]: 0.5 ± 4.9%
- inhibitory activity against SARS-CoV-2 3CL^pro (in words, SAR discussion): completely abolished
- IC50 [2]: > 20 µM

SMILES: COc1cc(OC)cc(C(=O)Nc2nc3c(s2)CCc2cc(OC)ccc2-3)c1 [compound 7l]
- inhibition at 20 µM [1]: -13.1 ± 1.7%
- inhibitory activity against SARS-CoV-2 3CL^pro (in words, SAR discussion): did not show any inhibitory activity
- IC50 [2]: > 20 µM

Reference: PMC9145245, “Synthesis and Biochemical Evaluation of 8H-Indeno[1,2-d]thiazole Derivatives as Novel SARS-CoV-2 3CL Protease Inhibitors” (Molecules, 2022)
